According to patent US20030153081A1, “Viral core protein-cationic lipid-nucleic acid-delivery complexes” (priority 1999, published 2003):

Columns and labels:
differentiated ND7 cells = experiment: X-gal histochemistry, transfection of differentiated ND7 cells; assay type: cell-based, rat/mouse
Description: ND7 cells were plated in a 24 well culture plate at a density of 4×10^4 cells per well in normal growth media (+serum). Twenty-four hours later the media was replaced with differentiation media and the cells were grown for an additional 24 hrs. Three different differentiation medias were used; serum-free (−serum), normal growth media plus 1 mM cAMP (cAMP), or reduced serum (0.5%) plus 1 mM cAMP and 50 ng/ml nerve growth factor (NGF). The cells were then transfected with pCMVb complexed with either DC-Chol/DOPE alone or Mu1 plus DC-Chol/DOPE. Forty-eight hours later the cells were fixed and processed for X-Gal histochemistry and the percentage of positive cells determined.
Differentiation of ND7 cells was carried out using three previously described methods ^28, 29. ND7 cells were seeded in NGM at a density of 4×10^4 cells per well in a 24 well culture dish (Nunc). Twenty four hours later the media was replaced with either: a) NGM supplemented with 1 mM adenosine 3′:5′-cyclic monophosphate (cAMP; Sigma), or b) serum-free differentiation media (50% Hams F12, 50% DMEM, 5 μg/mL Transterrin, 250 ng/mL Insulin, 0.3 μM sodium selenite), or c) low serum nerve growth factor (NGF) media (L-15 supplemented with 2 mM glutamine, 4 g/L glucose, 4 g/L sodium bicarbonate, 10 u/mL penicillin, […] streptomycin, 0.5% FCS, 1 mM cAMP, 50 ng/mL NGF (Alomone Labs)). Differentiated ND7 cells were grown in appropriate media for 24 hrs at 37° C., 5% CO2 prior to transfection.
We also examined the ability of Mu1 to improved cationic liposome-mediated transfection in differentiated ND7s. The ND7 cell line is derived from a fusion of primary rat dorsal root ganglia (DRG) neurons and the mouse neuroblastoma N18Tg2 ^28. ND7 cells can be differentiated in a variety of manners including the withdrawal of serum, cAMP administration or exposure to reduced serum plus cAMP and nerve growth factor. Differentiation of ND7s leads to the expression of cellular properties associated with their parental nociceptive sensory neurons including a reduction in cell division and the onset of neurite outgrowth. ND7 cells were seeded in 24 well culture plates and 24 hours later differentiated. Fifteen to 20 hours following the onset of differentiation, they were transfected as above. Fifteen to 20 hours following transfection, cells were fixed and processed for X-gal histochemistry. Consistent with previous observations, transfection efficiencies varied greatly between the three differentiated groups. […] In all three conditions, however, inclusion of Mu1 polypeptide in the transfection complex improved the transduction of differentiated ND7 cells. […] The greatest improvement in efficiencies was seen, however, in the group differentiated by serum withdrawal. Here, increases of greater than 10 fold were observed.

ND7 cells = experiment: β-galactosidase reporter gene assay, transfection of undifferentiated ND7 cells; assay type: cell-based, rat/mouse
Description: ND7 cells were seeded at a density of 5 ×10^4 cells/well in 24 well culture dishes 24 hrs prior to transfection. Immediately prior to transfection, cells were washed in serum-free media. Complexes were formed by incubating pCMVβ with Mu1 prior to the addition of the cationic liposome DC-Chol/DOPE. In each case 1 μg pCMVβ was complexed with 0.6, 6, 12, and 21 μg Mu1 peptide. Each of these combinations was then complexed with 3, 4 and 6 μg DC-Chol/DOPE. ND7 cells were exposed to transfection complexes for 2 hours then maintained at 37° C., 5% CO2 for another 24 hrs before being harvested and processed for β-galactosidase enzyme assay. Numbers represent means±SD, n=3.
pCMVβ plasmid DNA was complexed to various amounts of polycationic peptide and then mixed with cationic liposome at a ratio of 1:3 (pCMVβ:liposome; w/w). After being washed briefly in serum free media, ND7 cells were exposed to the […] complexes for two hours and then returned to serum containing media Twenty-four hours later the cells were harvested and processed for β-galactosidase enzyme assay. Each condition was performed in triplicate and each experiment replicated three times. Numbers represent means±SD.
ND7s are a well-characterized cell line derived from the fusion of a neuroblastoma N18Tg2) with neonatal rat sensory neurons ^28. The cell line was maintained in normal growth media (NGM) (Leibovitz's L-15 media (BRL) enriched with 10% Fetal bovine serum (BRL), 4 g/L glucose, 4 g/L sodium bicarbonate (BRL), 100 IU/mL penicillin/streptomycin (BRL)) at 37° C. and 5% CO2. The cells were plated onto 24 well plates (Costar) at a density that produced 70% confluence after 24 hours.
Since initial experiments determined that the presence of fetal bovine serum inhibited transfection of ND7 cells serum-free differentiation media was used for all transfections. Various amounts of DNA and liposome were placed in the bottom of a 7 mL sterile Bijou container (Bibby Sterilin Ltd., Staffordshire, U.K.), but not in contact with each other.
DNA and liposomes were combined by the addition of 400 μL serum-free differentiation media and gentle shaking. The DNA: liposome mixture was incubated at room temperature for 20 to 30 minutes before being applied to the cells. The DNA/liposome mixture was then applied to the cells and incubated at 37° C., 5% CO2 for 2 hours after which this media was replaced with complete media Twenty four to 48 hours later the cells were fixed and processed for X-gal histochemistry as described ^31 or harvested for β-galactosidase enzyme assays (Promega Corp.).
Transfection complexes including the test peptides were generated in the following manner. Various amounts of peptide was placed in the bottom of sterile polystyrene containers alongside, but not in contact with 1 μg·pCMVβ and mixed by adding 400 μl serum free NGM media The complexes were incubated at room temperature for 10 minutes after which DC-Chol/DOPE was added. The pDNA/peptide/liposome complex was further incubated at room temperature for 20 minutes and then administered to cells as above.
We examined the ability of Mu1 and Vp1 to enhance the transfection of a neuronal cell line by cationic liposomes using a β-Galactosidase reporter gene assay. ND7 cells were transfected with pCMVβ complexed to varying amounts of peptide and DC-Chol/DOPE. We have previously shown that the cationic liposome DC-Chol/DOPE is capable of efficiently transfecting the neuronally derived ND7 cell line ^31. […] Temporally, maximal levels of transgene expression are obtained between 48-60 hours post transfection. Therefore, in order to maximize the chance of detecting improvements in transfection we performed all our assays within 12-20 hours of transfection at a time when levels of reporter gene expression were lower. Previously we found a pDNA: liposome ratio of 1:3 (w/w) optimal for transfections in ND7 cells ^31. […]

Substance: H-MRRAHHRRRRASHRRMRGG-OH [Mu1]
- number of positive cells (FIG. 6) (differentiated ND7 cells; all three differentiation media, Mu1 plus DC-Chol/DOPE vs DC-Chol/DOPE alone): increased the number of positive cells
- increased efficiency by inclusion of Mu1 (differentiated ND7 cells; differentiated by cAMP alone): greater than 6 fold
- increased efficiency by inclusion of Mu1 (differentiated ND7 cells; differentiated by serum withdrawal): greater than 10 fold
- increased efficiency by inclusion of Mu1 (differentiated ND7 cells; low serum/cAMP/NGF): greater than 6 fold
- concentration in solution, optimal transfections (ND7 cells; 12 μg Mu1/1 μg pCMVβ, 400 μL): 30 ng/mL
- relative ratios pCMVβ/Mu1/(DC-Chol/DOPE) giving greatest improvement in transfection efficiencies (ND7 cells; 0.6-21 μg Mu1, 3-6 μg liposome per 1 μg pCMVβ tested): 1/12/6
- increase in transfections compared to DNA alone (ND7 cells; 1/12/6 pCMVβ/Mu1/(DC-Chol/DOPE) w/w/w): 11 fold
- concentration of protein in the cellular lysates vs untransfected cells (ND7 cells; Mu1 complex (data not shown)): did not significantly vary
- improvement in transfection efficiencies over naked DNA (ND7 cells; pCMVβ complexed to Mu1 alone, no liposome): No improvement in transfection efficiencies over naked DNA
- effect on transfection efficiencies (ND7 cells; pDNA:Mu1 1:0.5 (w/w) with liposomes, initial experiments (not shown)): did not affect transfection efficiencies
- improvement of cationic liposome mediated transfection efficiencies (ND7 cells; β-galactosidase activity, Mu1 with DC-Chol/DOPE vs liposome without Mu1): over 4 fold
